# Values of other authors, collected in patent publication US20240377378A1, “TRACER METHODS FOR THE DETERMINATION OF SORBENT CONTENT IN SOILS” (Regenesis Bioremediation Products, priority 2023, published 2024).
# Key:
# [1] = water
# [2] = under normal conditions (Congo Red: normal or ambient conditions)
# [3] = 2012 OSHA Hazard Communication Standard
Solubility [1],Chemical Stability [2],Solubility (in words) [1],Hazard Identification: criteria for hazardous classification [3],SMILES,carcinogenicity hazard category [3],reproductive toxicity hazard category [3],pKa,Serious eye damage/eye irritation hazard category [3],acute oral toxicity hazard category [3]
25 to 116 g/L,Stable under,–,–,Nc1c(/N=N/c2ccc(-c3ccc(/N=N/c4cc(S(=O)(=O)O)c5ccccc5c4N)cc3)cc2)cc(S(=O)(=O)O)c2ccccc12 [Congo Red],"(Category 1B),",(Category 2),–,–,–
50 to 100 g/L,Stable under,soluble in water,Does not meet,O=S(=O)(O)c1cc(S(=O)(=O)O)c2c(/N=N/c3ccccc3)c(O)ccc2c1 [Orange G],–,–,11.5,–,–

SMILES,Solubility [1],Chemical Stability [2],Solubility (in words) [1],Hazard Identification: criteria for hazardous classification [3],carcinogenicity hazard category [3],reproductive toxicity hazard category [3],pKa,Serious eye damage/eye irritation hazard category [3],acute oral toxicity hazard category [3]
CCN(CC)c1ccc2c(-c3ccccc3C(=O)O)c3ccc(=[N+](CC)CC)cc-3oc2c1.[Cl-] [Rhodamine B],–,Stable under,–,–,–,–,3.1-3.22,(Category 1),"(Category 4),"
